Measured values published in paper PMC8201479, “Trisubstituted Pyrrolinones as Small-Molecule Inhibitors Disrupting the Protein–RNA Interaction of LIN28 and Let-7” (ACS Medicinal Chemistry Letters, 2021).
Where two headings read alike, the source gives them in different places.

What was measured:
LIN28–let-7 interaction [1] = target: T1, LIN28–let-7 interaction (Homo sapiens, UniProt Q9H9Z2); assay: Fluorescence polarization (FP) assay, LIN28A (residues 16–187) and FAM-labeled preE-let-7f-1; format: binding; details: text and figures; C-labels = library sample, PH-labels = in-house resynthesized; read-out: IC50 in the FP assay
T1 construct: Purified LIN28A (residues 16–187) was incubated at a concentration of 200 nM; His-tag (cleaved yes); made in house; host or cells: Escherichia coli BL21(DE3)
T1 sequence (Q9H9Z2 16-187): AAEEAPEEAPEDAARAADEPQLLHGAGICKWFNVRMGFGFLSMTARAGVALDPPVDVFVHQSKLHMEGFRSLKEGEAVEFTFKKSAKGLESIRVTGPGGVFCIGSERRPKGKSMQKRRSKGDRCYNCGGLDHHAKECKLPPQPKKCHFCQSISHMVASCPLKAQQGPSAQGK
Method: Protein expression and purification.
19 vector and overexpressed in Escherichia coli BL21(DE3). The culture was incubated at 37 °C until
the absorbance at 600 nm (OD600) reached 0.5–0.7. IPTG was added to a final concentration of
300 µM, and overnight induction was performed at 18 °C. Cells were harvested by centrifugation.
The bacterial pellet was resuspended in lysis buffer (50 mM NaH2PO4, pH 7.5, 300 mM NaCl,
0.1 mM PMSF) and lysed using a Microfluidizer (Microfluidics) . A fresh portion of 0.1 mM PMSF
and Triton X-100 (1% final concentration) were added. The lysate was cleared by ultra centrifugation
at 30000 xg and 4 °C for 1 h. The protein purification was performed using immobilized nickel
300 mM NaCl and 5 % glycerol. Gradient elution was performed with a maximum of 0.5 M imidazole.
Subsequently, the affinity tag was cleaved using His6 -TEV-protease and the protease and unspecific
binders were eliminated by a second nickel affinity chromatography. After protein concentration
LIN28A containing fractions were concentrated and applied to a High Load Superdex 75 pg 16/600
column (GE Healthcare) with gel-filtration buffer (30 mM NaH2PO4, pH 7.5, 50 mM NaCl, 5%
glycerol, 2 mM β-ME). The purified protein was concentrated and stored at -80 °C until further
Fluorescence polarization. The fluorescence polarization assay was performed in black low volume
IC50 measurements were performed with three technical
minutes with compound concentrations ranging from 0.3 nM to 100 µM in FP assay buffer (20 mM
Tris, pH 7, 100 mM NaCl, 5 mM MgCl2, 2 mM glutathione (reduced), 0.1 % NP-40). Subsequently,
FAM-labeled preE-let-7f-1 (mus musculus) ([…]-
FAM, synthesized by IDT) was added to a final concentration of 2 nM. Fluorescence polarization
(§1) was detected after incubation at room temperature using a TECAN Spark plate reader. Half maximal
inhibitory concentrations (IC50) were determined using GraphPad Prism 7. […]

LIN28–let-7 interaction [2] = target: T1, LIN28–let-7 interaction; assay: as above; format: binding; details: for FP, Average (mP): raw data Table S3, four replicates
LIN28–let-7 complex = target: T2, LIN28–let-7 complex (Homo sapiens, UniProt Q9H9Z2); assay: Electrophoretic mobility shift assay (EMSA); format: binding
T2 construct: Purified LIN28A (residues 16–187) was incubated at a concentration of 200 nM; His-tag (cleaved yes); made in house; host or cells: Escherichia coli BL21(DE3)
T2 sequence (Q9H9Z2 16-187): T1 sequence (Q9H9Z2 16-187)
Method: as §1
inhibitory concentrations (IC50) were determined using GraphPad Prism 7.
Compound screening. High throughput screening was performed in low volume 384 well plates
(Corning 4514) with 30 µM compound, 40 nM LIN28A, and 2 nM preE-let-7f-1-FAM in FP assay
buffer. Compounds were transferred with an ECHO 520 liquid handler and protein and RNA were
added with a multidrop dispenser. Protein and RNA were added stepwise with a 30 min incubation
period in between. FP was detected after a final incubation of 15 min with an Envision plate reader
and fluorescence was measured with a Paradigm plate reader. A reaction without LIN28 served as a
negative control and one without compound was used as a positive control. The software Quattro
Workflow (Quattro Research GmbH) was used for the analysis of screening data.
Electrophoretic mobility shift assay. EMSA was used as a secondary assay to validate FP-assay hit
molecules. Purified LIN28A (residues 16–187) was incubated with compound and 5 U recombinant
ribonuclease inhibitor (Takara Bio) in EMSA reaction buffer (50 mM Tris (pH 7.5), 100 mM NaCl,
10 mM β-mercaptoethanol, 50 µM ZnCl2, 2 % DMSO, 0.01 % Tween 20, 12 % glycerol) for 2 hours
at room temperature. Subsequently, preE-let-7f-1-Cy3 (mus musculus) (GGGGUAGUGAUUUUAC
CCUGUUUAGGAGAU-Cy3, purchased from IDT) was added to a final concentration of 5 nM and
a reaction volume of 50 µL. The final concentration of LIN28A was 10 nM and compound
concentrations up to 75 µM were used. The reaction mixtures were incubated for a further 15 minutes
and 10 µL loading dye (40 % glycerol, 1.5x TAE) was added. 10 µL of each reaction was separated
in an 8 % polyacrylamide TAE gel at 4 °C and 220 V for 1 h using 0.25x TAE as running buffer. Cy3
fluorescence was detected with a ChemiDoc M P (Bio-Rad) and 2 minutes of exposure time.
Thermal shift assay. Thermal stability of the cold shock domain construct LIN28 A (residues 16–
126) with and without compound was monitored using a NanoTemper Prometheus NT.48 nano -

[3] = target: T3, cold-shock domain of LIN28A (Homo sapiens, UniProt Q9H9Z2); assay: Fluorescence quenching binding assay
T3 construct: cold shock domain construct LIN28 A (residues 16– 126)
T3 sequence (Q9H9Z2 16-126): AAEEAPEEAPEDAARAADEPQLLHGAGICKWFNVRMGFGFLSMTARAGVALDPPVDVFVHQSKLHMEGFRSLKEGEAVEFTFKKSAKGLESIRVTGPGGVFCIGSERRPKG
Source text: Figure S5. Fluorescence quenching assay measuring binding of PH-31 to the cold-shock domain of
(1 picture or pasted object on this page, not shown here)

IC50 (LIN28–let-7 interaction [1]): 18 µM
IC50 (LIN28–let-7 interaction [2]; Table 1, quadruplicate, starting from a maximum concentration of 60 μM, eight concentrations, read-out: IC50, LIN28–let-7 inhibitory activity): 5 µM
FP, Average (mP) (LIN28–let-7 interaction [2]; 0.041 μM compound): 109.25 mP
FP, Average (mP) (LIN28–let-7 interaction [2]; 0.123 μM compound): 110.00 mP
FP, Average (mP) (LIN28–let-7 interaction [2]; 0.368 μM compound): 113.50 mP
FP, Average (mP) (LIN28–let-7 interaction [2]; 1.103 μM compound): 105.75 mP
FP, Average (mP) (LIN28–let-7 interaction [2]; 3.125 μM compound): 75.05 mP
FP, Average (mP) (LIN28–let-7 interaction [2]; 9.375 μM compound): 64.03 mP
FP, Average (mP) (LIN28–let-7 interaction [2]; 29.688 μM compound): 43.05 mP
FP, Average (mP) (LIN28–let-7 interaction [2]; 59.375 μM compound): 38.75 mP
inhibition of the LIN28–let-7 complex in EMSA (LIN28–let-7 complex; compound concentrations up to 75 µM): dose-dependent micromolar inhibition
IC50 (LIN28–let-7 complex; relative fluorescence intensity of let-7f divided by that of LIN28–let-7f complex plus let-7f): 38 µM
Kd [3]: 16.5 ± 2.8 µM
Compound: O=C(C1=C(O)C(=O)N(c2ccc(O)c(C(=O)O)c2)C1c1ccc(-c2nccs2)cc1)c1ccc(Br)cc1 (stereo not shown) [C902/PH-31]
